In patent publication US10377744B2, “Potent soluble epdxide hydrolase inhibitors” (Eicosis, LLC, priority 2014, dated 2019):
In brackets after ≈: the same amount, converted by molar mass. Where two headings read alike, the source gives them in different places. Values belong to the compound of their own block, whether it stands above or below them.

Assays:
[1] = Solubility in Acetate Buffer at pH 3; type: physicochemical; conditions: for solubility: aqueous buffer, read-out: Sol (ug/mL) at pH3
[2] = Experimental logP by HPLC method; type: physicochemical; conditions: for chromatographic logP: read-out: Exp. logP
[3] = Solubility in Phosphate Buffer at pH 7.4; type: physicochemical; conditions: for solubility compared to sEH inhibitors with hydrophobic alkyl group at R7: in words
[4] = pH titration of solubility; type: physicochemical; conditions: FIG. 9
PTZ induced seizure = assay: Pentylenetetrazol (PTZ) induced seizure model; type: in vivo, mice
Protocol: To investigate the central nervous system penetration efficacy of sEH inhibitors a standard acute test involving the administration of pro-convulsant pentylenetetrazol (PTZ) was employed. In the subcutaneous pentylenetetrazol (PTZ) test 80 mg/kg of PTZ is administered by subcutaneous route, time to onset of first clonic seizure (clonus), time to tonic hind limb extension and lethality (tonus) are monitored for a duration of 30 min. Inhibitors of sEH were completely dissolved using PEG400 as a vehicle to give clear solutions. Inhibitors or vehicle were administered by intraperitoneal route 1 h prior to pro-convulsant at a single discriminating dose based on earlier data. This dose of PTZ produces 100% lethality within 30 min upon administration.
PTZ is a chemical which induces seizures. This assay is considered highly translatable from mice to humans.

human sEH [5] = target: T1, human sEH (Homo sapiens (Human), UniProt P34913); assay: FRET-displacement assay (Ki); type: binding; conditions: for Ki: affinity purified recombinant human sEH, FRET-displacement
T1 sequence (P34913 whole entry): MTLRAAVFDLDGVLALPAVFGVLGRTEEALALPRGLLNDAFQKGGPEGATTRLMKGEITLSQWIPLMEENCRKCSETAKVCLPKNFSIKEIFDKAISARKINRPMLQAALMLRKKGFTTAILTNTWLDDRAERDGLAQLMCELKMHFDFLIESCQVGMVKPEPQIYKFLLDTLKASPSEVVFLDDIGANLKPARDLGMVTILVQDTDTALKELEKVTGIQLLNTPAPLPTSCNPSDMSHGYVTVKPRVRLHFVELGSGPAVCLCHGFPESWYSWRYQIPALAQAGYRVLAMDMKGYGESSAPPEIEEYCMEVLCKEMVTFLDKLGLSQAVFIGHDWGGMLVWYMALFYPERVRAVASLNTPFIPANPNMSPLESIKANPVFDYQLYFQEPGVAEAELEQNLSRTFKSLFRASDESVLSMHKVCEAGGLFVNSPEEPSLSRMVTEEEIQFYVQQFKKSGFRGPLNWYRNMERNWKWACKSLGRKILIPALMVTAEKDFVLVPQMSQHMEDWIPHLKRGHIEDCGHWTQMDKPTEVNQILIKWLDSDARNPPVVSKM

human sEH [6] = target: T1, human sEH; assay: koff measurement, enzymatic t1/2 (residence time); conditions: time for half of the drug to dissociate from recombinant affinity purified human sEH
[7] = HPLC method calibrated with eLogP of 4 selected inhibitors determined by shake-flask method

Compound: 1-(3-fluoro-4-(trifluoromethyl)phenyl)-3-(1-isobutyrylpiperidin-4-yl)urea [Compound 20]
Sol (ug/mL) at pH3 ([1]; Acetate Buffer at pH 3): 6 ug/mL

Compound: CC(=O)N1CCC(NC(=O)NC23CC4CC(CC(C4)C2)C3)CC1 [APAU, reference compound]
chromatographic logP [2]: 1.5
solubility ([3]; aqueous buffer, Phosphate Buffer at pH 7.4): 277 µg/mL (≈ 867 µM)

Compound: O=C(Nc1ccc(OC(F)(F)F)cc1)NC1CCN(C(=O)C2CCOCC2)CC1 [Compound 1, 1-(1-(tetrahydro-2H-pyran-4-carbonyl)piperidin-4-yl)-3-(4-(trifluoromethoxy)phenyl)urea]
chromatographic logP [2]: 3.26

Compound: Cc1occc1C(=O)N1CCC(NC(=O)Nc2ccc(OC(F)(F)F)cc2)CC1 [Compound 6, 1-(1-(2-methylfuran-3-carbonyl)piperidin-4-yl)-3-(4-(trifluoromethoxy)phenyl)urea]
chromatographic logP [2]: 4.3

Compound: O=C(Nc1ccc(C(F)(F)F)cc1)NC1CCN(C(=O)C2=COCC2)CC1 [Compound 12, 1-(1-(4,5-dihydrofuran-3-carbonyl)piperidin-4-yl)-3-(4-(trifluoromethyl)phenyl)urea]
chromatographic logP [2, 7]: 3.37

Compound: O=C(Nc1ccc(C(F)(F)F)cc1)NC1CCN(C(=O)C2CCCOC2)CC1 (stereo not shown) [Compound 15, 1-(1-(tetrahydro-2H-pyran-3-carbonyl)piperidin-4-yl)-3-(4-(trifluoromethyl)phenyl)urea]
chromatographic logP [2, 7]: 3.41

Compound: O=C(Nc1ccc(C(F)(F)F)cc1)NC1CCN(C(=O)c2cc[nH]c2)CC1 [Compound 16, 1-(1-(1H-pyrrole-3-carbonyl)piperidin-4-yl)-3-(4-(trifluoromethyl)phenyl)urea]
chromatographic logP [2, 7]: 3.26

Compound: O=C(Nc1ccc(OC(F)(F)F)c(F)c1)NC1CCN(C(=O)C2CC2)CC1 [Compound 24, 1-(1-(cyclopropanecarbonyl)piperidin-4-yl)-3-(3-fluoro-4-(trifluoromethoxy)phenyl)urea]
chromatographic logP [2]: 4.19

Compound: CC[C@H](C)C(=O)N1CCC(NC(=O)Nc2ccc(OC(F)(F)F)c(F)c2)CC1 [Compound 26, (S)-1-(3-fluoro-4-(trifluoromethoxy)phenyl)-3-(1-(2-methylbutanoyl)piperidin-4-yl)urea]
chromatographic logP [2, 7]: 4.16

Compound: O=C(Nc1ccc(OC(F)(F)F)c(F)c1)NC1CCN(C(=O)C2CCCOC2)CC1 (stereo not shown) [Compound 27]
solubility ([1]; Acetate Buffer at pH 3): 522 µg/mL (≈ 1200 µM)
solubility at pH 3 compared to APAU ([1]; pH 3, in words): much better than the most soluble 1,3-disubstituted urea sEH inhibitors
solubility compared to sEH inhibitors with hydrophobic alkyl group at R7 [3]: remarkably enhance the solubility

Compound: O=C(Nc1ccc(OC(F)(F)F)c(F)c1)NC1CCN(C(=O)C2CCOCC2)CC1 [Compound 29, 1-(3-fluoro-4-(trifluoromethoxy)phenyl)-3-(1-(tetrahydro-2H-pyran-4-carbonyl)piperidin-4-yl)urea]
solubility in pH titration [4]: increases dramatically when the pH is below 4
onset of the tonic phase of seizure (PTZ induced seizure; 0.3 mpk, wild type Swiss mice, subcutaneous PTZ, p<0.05): delayed onset of the tonic phase of seizure
protection from convulsions and associated lethality (PTZ induced seizure; mice, PTZ 80 mg/kg subcutaneous, inhibitor 1 h prior): protect mice from convulsions and associated lethality
solubility ([1]; Acetate Buffer at pH 3): 206 µg/mL (≈ 475 µM)
chromatographic logP [2, 7]: 3.73
solubility compared to sEH inhibitors with hydrophobic alkyl group at R7 [3]: remarkably enhance the solubility

Compound: O=C(Nc1ccc(C(F)(F)F)c(F)c1)NC1CCN(C(=O)C2(C(F)(F)F)CC2)CC1 [Compound 36, 1-(3-fluoro-4-(trifluoromethyl)phenyl)-3-(1-(1-(trifluoromethyl)cycloproropane-1-carbonyl)piperidin-4-yl)urea]
chromatographic logP [2, 7]: 5.52
Potency Enhancement (human sEH [5]; Ki of original inhibitor / Ki of meta-F substituted inhibitor): 1

Compound: CC[C@H](C)C(=O)N1CCC(NC(=O)Nc2ccc(OC(F)(F)F)c(Cl)c2)CC1 [Compound 44, (S)-1-(3-chloro-4-(trifluoromethoxy)phenyl)-3-(1-(2-methylbutanoyl)piperidin-4-yl)urea]
t1/2 (min) human sEH (human sEH [6]): 10 min
chromatographic logP [2, 7]: 7.7

Compound: CC(C)C(=O)N1CCC(NC(=O)Nc2ccc(C(F)(F)F)cc2)CC1 [Compound 2389, reference compound]
Exp. logP [2]: 3.37

Compound: CC(C)C(=O)N1CCC(NC(=O)Nc2ccc(OC(F)(F)F)cc2)CC1 [Compound 2422, reference compound]
Exp. logP [2]: 3.56

The remaining lines, values ahead:

Exp. logP [2]: 5.11
Compound: 2-(1-(cyclopropanecarbonyl)piperidin-4-yl)-N-(3-fluoro-4-(trifluoromethoxy)phenyl)acetamide [Compound 48]

chromatographic logP [2, 7]: 5.94
Compound: O=C(Nc1ccc(OC(F)(F)F)c(F)c1)NC1CCN(C(=O)C2(C(F)(F)F)CC2)CC1 [Compound 30]

chromatographic logP [2, 7]: 3.76
Compound: CCC(=O)N1CCC(NC(=O)Nc2ccc(C(F)(F)F)c(F)c2)CC1 [Compound 31, 1-(3-fluoro-4-(trifluoromethyl)phenyl)-3-(1-propionylpiperidin-4-yl)urea]

chromatographic logP [2, 7]: 3.94
Compound: O=C(Nc1ccc(C(F)(F)F)c(F)c1)NC1CCN(C(=O)C2CC2)CC1 [Compound 32, 1-(1-(cyclopropanecarbonyl)piperidin-4-yl)-3-(3-fluoro-4-(trifluoromethyl)phenyl)urea]

chromatographic logP [2, 7]: 3.41
Compound: O=C(Nc1ccc(C(F)(F)F)c(F)c1)NC1CCN(C(=O)[C@@H]2CCOC2)CC1 [Compound 33, (R)-1-(3-fluoro-4-(trifluoromethyl)phenyl)-3-(1-(tetrahydrofuran-3-carbonyl)piperidin-4-yl)urea]

chromatographic logP [2, 7]: 3.84
Compound: O=C(Nc1ccc(C(F)(F)F)c(F)c1)NC1CCN(C(=O)C2CCCOC2)CC1 (stereo not shown) [Compound 35, 1-(3-fluoro-4-(trifluoromethyl)phenyl)-3-(1-(tetrahydro-2H-pyran-3-carbonyl)piperidin-4-yl)urea]

chromatographic logP [2, 7]: 3.52
Compound: O=C(Nc1ccc(C(F)(F)F)c(F)c1)NC1CCN(C(=O)C2CCOCC2)CC1 [Compound 37, 1-(3-fluoro-4-(trifluoromethyl)phenyl)-3-(1-(tetrahydro-2H-pyran-4-carbonyl)piperidin-4-yl)urea]

Ki (human sEH [5]): 1.95 ± 0.3 nM
Compound: O=C(Nc1ccc(OC(F)(F)F)c(F)c1)Nc1ccc(OC(F)(F)F)c(F)c1 [Compound 38]

Ki (human sEH [5]): 10.1 ± 1.8 nM
Compound: O=C(Nc1ccc(OC(F)(F)F)c(F)c1)NC1CCN(C(=O)N2CCC(NC(=O)Nc3ccc(OC(F)(F)F)c(F)c3)CC2)CC1 [Compound 39]

chromatographic logP [2, 7]: 5.94
Compound: CCOC(=O)N1CCC(NC(=O)Nc2ccc(OC(F)(F)F)c(F)c2)CC1 [Compound 40, ethyl 4-(3-(3-fluoro-4-(trifluoromethoxy)phenyl)ureido)piperidine-1-carboxylate]

chromatographic logP [2, 7]: 5.46
Compound: CCOC(=O)N1CCC(NC(=O)Nc2ccc(C(F)(F)F)c(F)c2)CC1 [Compound 41, ethyl 4-(3-(3-fluoro-4-(trifluoromethyl)phenyl)ureido)piperidine-1-carboxylate]

chromatographic logP [2, 7]: 3.93
Compound: O=C(Nc1ccc(OC(F)(F)F)c(F)c1)NC1CCN(C(=O)N2CCOCC2)CC1 [Compound 43, 1-(3-fluoro-4-(trifluoromethoxy)phenyl)-3-(1-(morpholine-4-carbonyl)piperidin-4-yl)urea]

chromatographic logP [2, 7]: 8.07
Compound: CC[C@H](C)C(=O)N1CCC(NC(=O)Nc2ccc(OC(F)(F)F)c(Br)c2)CC1 [Compound 45]

chromatographic logP [2, 7]: 9.02
Compound: CC[C@H](C)C(=O)N1CCC(NC(=O)Nc2ccc(OC(F)(F)F)c(C(F)(F)F)c2)CC1 [Compound 46, (S)-1-(1-(2-methylbutanoyl)piperidin-4-yl)-3-(4-(trifluoromethoxy)-3-(trifluoromethyl)phenyl)urea]

chromatographic logP [2, 7]: 10.6
Compound: CC[C@H](C)C(=O)N1CCC(NC(=O)Nc2ccc(OC(F)(F)F)c(OC(F)(F)F)c2)CC1 [Compound 47]
